Results on 1 compound are retold here after patent publication EP0068715A1, “Beta-lactam antibacterial agents, their preparation and use” (BEECHAM GROUP PLC, priority 1981, dated 1983).

What all share (experiment): standard MIC synergy test with amoxycillin
Assay type in all cases: cell-based
Common to all, as to conditions: amoxycillin alone, β-Lactamase Inhibitor: None

In one test the test system is E. coli JT39. An excerpt:
(§1) In a standard MIC synergy test, the following data were obtained for the compounds of this invention:-

A further test deals with Kleb. E70.
From the text: as §1

A further test concerns Proteus C889.
From the text: as §1

On to `CC1(C)S[C@@H]2[C@H](NC(=O)[C@H](N)c3ccc(O)cc3)C(=O)N2[C@H]1C(=O)O` [amoxycillin], for which, in the test with E. coli JT39, the “MIC of amoxycillin (μg/ml) E. coli JT39” value was determined as 2000 µg/mL. Moreover, the “MIC of amoxycillin (μg/ml) Kleb. E70” value with Kleb. E70 was found to be 500 µg/mL. Further, in the test with Proteus C889, the “MIC of amoxycillin (μg/ml) Proteus C889” value is more than 2000 µg/mL.
